Consider eight compounds from patent US10420341B2, “Herbicidal phenylpyrimidines” (BASF SE, priority 2015, dated 2019).

Assay [1] deals with AMARE. The assay can be described thus: greenhouse post-emergence herbicidal test. The settings on record: post-emergence method, scale from 0 to 100. Type of assay: in vivo, Amaranthus retroflexus. The gist of the method:
(§1)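 Greenhouse plants, grown to 3–15 cm, were treated post-emergence with emulsified or suspended compound and assessed over 2–4 weeks on a 0–100 damage scale.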

The test system of assay [2] is SETVI. The assay can be described thus: greenhouse post-emergence herbicidal test. It counts as in vivo, Setaria viridis. The settings on record: post-emergence method, scale from 0 to 100. From the text: The seeds of the test plants were sown separately for each species. For the post-emergence treatment, the test plants were first grown to a height of 3 to 15 cm, depending on the plant habit, and only then treated with the active ingredients which had been suspended or emulsified in water. For this purpose, the test plants were either sown directly and grown in the same containers, or they were first grown separately as seedlings and transplanted into the test containers a few days prior to treatment. Depending on the species, the plants were kept at 10-25° C. or 20-35° C., respectively. The test period extended over 2 to 4 weeks. During this time, the plants were tended, and their response to the individual treatments was evaluated. Evaluation was carried out using a scale from 0 to 100. 100 means no emergence of the plants, or complete destruction of at least the aerial moieties, and 0 means no damage, or normal course of growth. […] The plants used in the greenhouse experiments were of the following species: [table]

In assay [3] the test system is APESV. Nature of the assay: greenhouse pre-emergence herbicidal test. Type of assay: in vivo, Apera spica-venti. The settings on record: pre-emergence method, scale from 0 to 100. The gist of the method:
(§2)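 Greenhouse plants receive the aqueous active ingredient straight after sowing, before emergence. Response is scored from 0 (no damage) to 100 (no emergence or complete kill of aerial parts) over a 2-4 week period.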

The subject of assay [4] is ECHCG. The assay can be described thus: greenhouse pre-emergence herbicidal test. It counts as in vivo, Echinocloa crus-galli. The settings on record: pre-emergence method, scale from 0 to 100. The gist of the method: as §2
Assay [5] relates to POLCO. The assay can be described thus: greenhouse post-emergence herbicidal test. It counts as in vivo, Polygonum convolvulus. The following applies: post-emergence method, application rate 500 g/ha, scale from 0 to 100. The gist of the method: as §1
Assay [6] deals with ALOMY. The assay can be described thus: greenhouse post-emergence herbicidal test. It counts as in vivo, Alopercurus myosuroides. The settings on record: post-emergence method, application rate 1000 g/ha, scale from 0 to 100. The procedure, abridged:
as §1

Assay [7] has as its system AVEFA. The assay can be described thus: greenhouse post-emergence herbicidal test. It counts as in vivo, Avena fatua. The following applies: post-emergence method, application rate 1000 g/ha, scale from 0 to 100. The procedure, abridged:
as §1

The subject of assay [8] is ABUTH. Nature of the assay: greenhouse post-emergence herbicidal test. Type of assay: in vivo, Abutilon theophrasti. The following applies: post-emergence method, application rate 500 g/ha, scale from 0 to 100. The procedure, abridged: as §1
The subject of assay [9] is ECHCG. Nature of the assay: greenhouse post-emergence herbicidal test. Type of assay: in vivo, Echinocloa crus-galli. The following applies: post-emergence method, scale from 0 to 100. The procedure, abridged: as §1

`Cc1cc(F)c(-c2cnc(C3CC3)nc2C(=O)O)cc1Cl` [example 137]: the “herbicidal activity against AMARE” value in assay [1] (application rate 1000 g/ha) was “very good (a very good herbicidal activity is given at values of at least 85)”. The “herbicidal activity against SETVI” value in [2] (application rate 1000 g/ha) is listed as “very good (a very good herbicidal activity is given at values of at least 85)”.

As to `CSc1ncc(-c2ccc(C#N)cc2C)c(C(=O)O)n1` [example 96], in [1] (application rate 2000 g/ha), the “herbicidal activity against AMARE” value is recorded as “very good (a very good herbicidal activity is given at values of at least 85)”. Further, the “herbicidal activity against SETVI” value in assay [2] (application rate 2000 g/ha) was “very good (a very good herbicidal activity is given at values of at least 85)”.

As to `Cc1ccc(Cl)c(-c2cnc(C3CC3)nc2C(=O)O)c1` [example 144], the “herbicidal activity against APESV” value in assay [3] (application rate 500 g/ha) was “very good (a very good herbicidal activity is given at values of at least 85)”. In addition, the “herbicidal activity against ECHCG” value in assay [4] (application rate 500 g/ha) is recorded as “very good (a very good herbicidal activity is given at values of at least 85)”. In [5], the “herbicidal activity against POLCO” value is given as “very good (a very good herbicidal activity is given at values of at least 85)”. Further, the “herbicidal activity against SETVI” value in assay [2] (application rate 500 g/ha) was “very good (a very good herbicidal activity is given at values of at least 85)”.

Regarding `O=C(O)c1nc(C2CC2)ncc1-c1c(F)cccc1I` [example 317], the “herbicidal activity against APESV” value in assay [3] (application rate 1000 g/ha) is “very good (a very good herbicidal activity is given at values of at least 85)”. For the same compound, in assay [4] (application rate 1000 g/ha), the “herbicidal activity against ECHCG” value was “very good (a very good herbicidal activity is given at values of at least 85)”. Also, the “herbicidal activity against ALOMY” value in assay [6] was “very good (a very good herbicidal activity is given at values of at least 85)”. Further, the “herbicidal activity against AVEFA” value in assay [7] is “very good (a very good herbicidal activity is given at values of at least 85)”. For the same compound, in assay [2] (application rate 1000 g/ha), the “herbicidal activity against SETVI” value was “very good (a very good herbicidal activity is given at values of at least 85)”.

For the compound `COC(=O)c1nc(C2CC2)ncc1-c1c(Br)ccc(C)c1F` [example 198], the “herbicidal activity against APESV” value in assay [3] (application rate 500 g/ha) is recorded as “very good (a very good herbicidal activity is given at values of at least 85)”. The “herbicidal activity against ECHCG” value in assay [4] (application rate 500 g/ha) was “very good (a very good herbicidal activity is given at values of at least 85)”. Moreover, in assay [8], the “herbicidal activity against ABUTH” value is on record as “very good (a very good herbicidal activity is given at values of at least 85)”. Moreover, the “herbicidal activity against SETVI” value in [2] (application rate 500 g/ha) is “very good (a very good herbicidal activity is given at values of at least 85)”.

Consider `CCOC(=O)c1nc(OC)ncc1-c1cc(C)c(F)cc1C` [example 64], for which, in [6], the “herbicidal activity against ALOMY” value was “very good (a very good herbicidal activity is given at values of at least 85)”. The “herbicidal activity against AMARE” value in [1] (application rate 1000 g/ha) is on record as “very good (a very good herbicidal activity is given at values of at least 85)”. The “herbicidal activity against SETVI” value in assay [2] (application rate 1000 g/ha) is “very good (a very good herbicidal activity is given at values of at least 85)”.

As for `CSc1ncc(-c2ccc(C(F)(F)F)cc2C)c(C(=O)O)n1` [example 99], the “herbicidal activity against AMARE” value in [1] (application rate 2000 g/ha) was “very good (a very good herbicidal activity is given at values of at least 85)”. Moreover, the “herbicidal activity against ECHCG” value in assay [9] (application rate 2000 g/ha) was “good (A good herbicidal activity is given at values of at least 70)”. Further, the “herbicidal activity against SETVI” value in [2] (application rate 2000 g/ha) was “very good (a very good herbicidal activity is given at values of at least 85)”.

With `COC(=O)c1nc(C2CC2)ncc1-c1ccccc1[N+](=O)[O-]` [example 223], the “herbicidal activity against APESV” value in assay [3] (application rate 1000 g/ha) is listed as “very good (a very good herbicidal activity is given at values of at least 85)”. In addition, the “herbicidal activity against ECHCG” value in [4] (application rate 1000 g/ha) and in assay [9] (application rate 1000 g/ha) was “very good (a very good herbicidal activity is given at values of at least 85)” throughout. In addition, the “herbicidal activity against SETVI” value in [2] (application rate 1000 g/ha) is “very good (a very good herbicidal activity is given at values of at least 85)”.
